# Source: US6403554B2, “Polyunsaturated fatty acid derivatives and their use” (Ardenia Investments Ltd., priority 1998, dated 2002)
# Experiments:
# [1] = tested on: hemagglutinating antibodies in serum; test: Humoral immune response: titers of hemagglutinating antibodies in serum; assay type: in vivo, C57B1/6 mice; settings: for Amount of hemagglutinins: serum, female mice; for Effect, % on hemagglutinins: versus control
# Procedure: (§1) 0.15 ml of compound 10 was administered intravenously to 6 mice females of CS7B1/6 line (weight 18-22 g) in doses of 45.5, 91 and 136.5 μg of compound 10 per capita for each testing group according to the dose. Simultaneously, a suspension of 5·10^7 sheep erythrocytes was injected intraperitoneally (0.2 ml per capita). Mice in the control group were injected intravenously with equal volume of saline. The effects of compound 10 on humoral immune response were analyzed both by counting the quantity of AFC in the spleen according to Cunningham (per 10^6 spleen cells and per spleen) and estimating the titers of hemagglutining antibodies in serum of the animals (Cunningham A. J., Nature, 1965, Vol.207, No 5001. P.1106-1107), while the titers of hemagglutinating antibodies were evaluated according to litterature (Evans J. et al., Cell, 1974; Vol 3., p.153-158, Feizi T., Menger E., Transfusion, 1970, Vol. 10, p.33-35,).
# (§2) 0.15 ml of compound 11 was administered intravenously to 6 female mice of the C57B1/6 line (weight 18-22 g) in doses of 45.5, 91 and 136.5 μg of compound 11 per capita for each testing group according to the dose. Simultaneously, a suspension of 5·10^7 sheep erytrocytes was injected intraperitoneally (0.2 ml per capita). Mice in the control group were injected intravenously with an equal volume of saline. The effects of compound 11 on humoral immune response was analysed both by counting the quantity of AFC in the spleen according to Cunningham (per 10^6 spleen cells and per spleen) and estimating the titers of hemagglutining antibodies in serum of the animals.
# as §2, with “12” for “11”, “erythrocytes” for “erytrocytes”, “analyzed” for “analysed”
# as §2, with “compound 8” for “compound 11”, “sheep erythrocytes” for “sheep erytrocytes”, “Mice of” for “Mice in”, “response were analyzed” for “response was analysed”
# as §2, with “compound 3” for “compound 11”, “Mice of” for “Mice in”, “with” for “with an”, “response were” for “response was”
# (§3) 0.15 ml of compound 4 was administered intravenously to 6 female mice of the C57B1/6 line (weight 18-22 g) in a doses of 45.5, 91 and 136.5 μg of compound 4 per capita for each testing group according to the dose. Simultaneously, a suspension of 5·10^7 sheep erythrocytes was injected intraperitoneally (0.2 ml per capita). […]
# [2] = tested on: antibody-forming cells (AFC) in the spleen; test: Humoral immune response: counting antibody-forming cells (AFC) in the spleen according to Cunningham, mice immunised with sheep erythrocytes; assay type: in vivo, C57B1/6 mice; settings: for Amount of antibody-forming cells per 10^6 spleen cells, M ± SEM (relative amount of AFC) / Amount of antibody-forming cells per spleen, M ± SEM (total AFC amount): 5-th day after injection, female mice; for Effect, % on AFC per 10^6 spleen cells / Effect, % on AFC per spleen: versus animals immunised only with sheep erythrocytes; for immunostimulating action: dose of 136.5 μg/mouse; for Immunogenic activity: doses of 45.5 and 91 μg/mouse
# Procedure: as §1, §2
# as §2, with “12” for “11”, “erythrocytes” for “erytrocytes”, “analyzed” for “analysed”
# as §2, with “compound 8” for “compound 11”, “sheep erythrocytes” for “sheep erytrocytes”, “Mice of” for “Mice in”, “response were analyzed” for “response was analysed”
# as §2, with “compound 3” for “compound 11”, “Mice of” for “Mice in”, “with” for “with an”, “response were” for “response was”
# as §3
# [3] = tested on: antibody-forming cells (AFC) in the spleen; test: Influence of compound on humoral immune response to sheep erythrocytes, C57B1/6 female mice (AFC in spleen, hemagglutinins); assay type: in vivo; settings: for Amount of antibody-forming cells per 10^6 spleen cells / Amount of antibody-forming cells per spleen / Effect on relative amount of AFC (per 10^6 spleen cells) / Effect on total AFC amount (per spleen) / Spleen index / Effect on hemagglutinin titers: i.v.; for Amount of antibody-forming cells per 10^6 spleen cells / Amount of antibody-forming cells per spleen / Effect on relative amount of AFC (per 10^6 spleen cells) / Effect on total AFC amount (per spleen): 5th day; for Amount of antibody-forming cells per 10^6 spleen cells / Amount of antibody-forming cells per spleen: M ± SEM; for Effect on relative amount of AFC (per 10^6 spleen cells) / Effect on total AFC amount (per spleen) / Effect on hemagglutinin titers: vs control; for Spleen index: with SRBC i.p.
# Procedure: The increase was calculated as compared with the amount of cells in the animals immunised only with sheep erythrocytes.
# as §1, §2
# as §2, with “12” for “11”, “erythrocytes” for “erytrocytes”, “analyzed” for “analysed”
# as §2, with “compound 8” for “compound 11”, “sheep erythrocytes” for “sheep erytrocytes”, “Mice of” for “Mice in”, “response were analyzed” for “response was analysed”
# 0.15 ml of compound 3 was administered intravenously to 6 female mice of the C57B1/6 line (weight 18-22 g) in doses of 45.5, 91 and 136.5 μg of compound 3 per capita for each testing group according to the dose. Simultaneously, a suspension of 5·10^7 sheep erytrocytes was injected intraperitoneally (0.2 ml per capita). Mice of the control group were injected intravenously with equal volume of saline.
Compound,Amount of hemagglutinins ([1]; 45.5 μg/mouse i.v.) [Log2 T],Amount of hemagglutinins ([1]; 91 μg/mouse i.v.) [Log2 T],"Effect, % on hemagglutinins ([1]; 91 μg/mouse i.v.)",Amount of hemagglutinins ([1]; 136.5 μg/mouse i.v.) [Log2 T],"Effect, % on hemagglutinins ([1]; 136.5 μg/mouse i.v.)","Amount of antibody-forming cells per 10^6 spleen cells, M ± SEM (relative amount of AFC) ([2]; 45.5 μg/mouse i.v.)","Amount of antibody-forming cells per spleen, M ± SEM (total AFC amount) ([2]; 45.5 μg/mouse i.v.)","Effect, % on AFC per 10^6 spleen cells ([2]; 45.5 μg/mouse i.v.)","Effect, % on AFC per spleen ([2]; 45.5 μg/mouse i.v.)","Amount of antibody-forming cells per 10^6 spleen cells, M ± SEM (relative amount of AFC) ([2]; 91 μg/mouse i.v.)","Amount of antibody-forming cells per spleen, M ± SEM (total AFC amount) ([2]; 91 μg/mouse i.v.)","Effect, % on AFC per 10^6 spleen cells ([2]; 91 μg/mouse i.v.)","Effect, % on AFC per spleen ([2]; 91 μg/mouse i.v.)","Amount of antibody-forming cells per 10^6 spleen cells, M ± SEM (relative amount of AFC) ([2]; 136.5 μg/mouse i.v.)","Amount of antibody-forming cells per spleen, M ± SEM (total AFC amount) ([2]; 136.5 μg/mouse i.v.)",immunostimulating action [2],Immunogenic activity [2],other results
"CC/C=C\C/C=C\C/C=C\C/C=C\C/C=C\C/C=C\CCC(=O)N[C@@H](Cc1ccc(OP(=O)(O)O)cc1)C(=O)O [Compound 12, N-docosahexaenoyl-o-phospho-L-tyrosine]",7.4 ± 0.3,7.4 ± 0.3,+2.8 p > 0.05%,7.8 ± 0.3,+7.7 p > 0.05%,263.8±23.6,31.8±2.8 × 10^3,−9.4 p >0.05%,−9.1 p >0.05%,307.8±30.9,40.2±2.7 × 10^3,+5.7 p > 0.05%,+14.9 p > 0.05%,682.6±33.3,69.6±6.0 × 10^3,high immunostimulating action,no immunogenic activity,"Effect, % on hemagglutinins ([1]; 45.5 μg/mouse i.v.): +2.8 p >0.05%"
"CC/C=C\C/C=C\C/C=C\C/C=C\C/C=C\C/C=C\CCC(=O)N[C@H](C(=O)O)[C@@H](C)OP(=O)(O)O [Compound 11, N-docosahexaenoyl-o-phospho-L-threonine]",8.3 ± 0.3,8.0 ± 0.5,,9.3 ± 0.2,,,,,,,,,,,,,,
"CC/C=C\C/C=C\C/C=C\CCCCCCCC(=O)N[C@H](C(=O)O)[C@@H](C)OP(=O)(O)O [Compound 19, N-linolenoyl-o-phospho-L-threonine]",8.1 ± 0.3,8.3 ± 0.4,,8.5 ± 0.3,,,,,,,,,,,,,,
"CC/C=C\C/C=C\C/C=C\CCCCCCCC(=O)NCCOP(=O)(O)O [Compound 17, N-linolenoyl-o-phospho-2-aminoethanol]",,,+2.6 p > 0.05%,,+2.6 p > 0.05%,457.3±40.7,51.1±4.4 × 10^3,−3.0 p > 0.05%,−7.4 p > 0.05%,523.8±45.3,63.5±5.1 × 10^3,+11.1 p > 0.05%,+15.0 p > 0.05%,619.6±38.9,71.6±4.7 × 10^3,marked immunostimulating action,no immunogenic activity,
"CC/C=C\C/C=C\C/C=C\C/C=C\C/C=C\CCCC(=O)NCCOP(=O)(O)O [Compound 13, N-eicosapentaenoyl-o-phospho-2-aminoethanol]",9.7 ± 1.2,9.5 ± 1.2,,10.3 ± 0.9,,,,,,,,,,,,,,
"CC/C=C\C/C=C\C/C=C\CCCCCCCC(=O)N[C@@H](Cc1ccc(OP(=O)(O)O)cc1)C(=O)O [Compound 20, N-(cis-9,12,15-octadecatrienoyl)-O-phospho-L-tyrosine]",,,,,,,,,,,,,,,,,,Amount of antibody-forming cells per 10^6 spleen cells ([3]; 45.5 μg/mouse): 512.8±46.2 cells per 10^6 spleen cells; Amount of antibody-forming cells per spleen ([3]; 45.5 μg/mouse): 46.4±4.8 × 10^3; Effect on relative amount of AFC (per 10^6 spleen cells) ([3]; 45.5 μg/mouse): −9.8 p > 0.05%; Effect on total AFC amount (per spleen) ([3]; 45.5 μg/mouse): −7.4 p > 0.05%; Spleen index ([3]; 45.5 μg/mouse): 6.3 ± 0.3 10^−3; Amount of antibody-forming cells per 10^6 spleen cells ([3]; 91 μg/mouse): 634.5±51.7 cells per 10^6 spleen cells; Amount of antibody-forming cells per spleen ([3]; 91 μg/mouse): 55.7±5.6 × 10^3; Effect on relative amount of AFC (per 10^6 spleen cells) ([3]; 91 μg/mouse): +11.6 p > 0.05%; Effect on total AFC amount (per spleen) ([3]; 91 μg/mouse): +11.2 p > 0.05%; Effect on hemagglutinin titers ([3]; 91 μg/mouse): +1.4 p > 0.05%; Spleen index ([3]; 91 μg/mouse): 6.5 ± 0.2 10^−3; immunostimulating action ([3]; 136.5 μg/mouse): marked immunostimulating action; Amount of antibody-forming cells per 10^6 spleen cells ([3]; 136.5 μg/mouse): 845.1±43.1 cells per 10^6 spleen cells; Amount of antibody-forming cells per spleen ([3]; 136.5 μg/mouse): 75.8±7.7 × 10^3; Effect on hemagglutinin titers ([3]; 136.5 μg/mouse): +2.7 p > 0.05%; Spleen index ([3]; 136.5 μg/mouse): 6.4 ± 0.4 10^−3; Immunogenic activity ([3]; 45.5 and 91 μg/mouse): no immunogenic activity
